Here are results for 25 compounds from PubChem BioAssay AID330 (DTP/NCI, 2004).

The test system of the experiment is P388 leukemia ip, CD2F1 mice, survival T/C. Description: NCI In Vivo Anticancer Drug Screen. Data for tumor model P388 Leukemia (intraperitoneal) in CD2F1 (CDF1) mice. The note with it: endpoint: median survival time, higher = longer survival. A digest of the protocol:
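Mice carrying the transplanted tumor received test compound or vehicle. Survival was recorded in each group, and the value is the treated-group measurement divided by that of the vehicle-treated control group.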

[1] abbreviates: dose: 100.0 mg/kg/injection, schedule: Q01DX005 (ip), vehicle: Klucel (hydroxypropylcellulose) (HPC).
Where [2] appears, read: dose: 200.0 mg/kg/injection, schedule: Q01DX005 (ip), vehicle: Klucel (hydroxypropylcellulose) (HPC).
Setting [3] is: dose: 100.0 mg/kg/injection, schedule: Q04DX002 (ip), vehicle: saline with Tween-80.
[4] abbreviates: dose: 60.0 mg/kg/injection, schedule: Q01DX005 (ip), vehicle: saline with Tween-80.
Where [5] appears, read: dose: 120.0 mg/kg/injection, schedule: Q01DX005 (ip), vehicle: saline with Tween-80.
Setting [6] is: dose: 240.0 mg/kg/injection, schedule: Q01DX005 (ip), vehicle: saline with Tween-80.
[7] abbreviates: dose: 50.0 mg/kg/injection, schedule: Q01DX009 (ip), vehicle: saline with Tween-80.
Setting [8] is: dose: 100.0 mg/kg/injection, schedule: Q01DX009 (ip), vehicle: saline with Tween-80.
[9] abbreviates: dose: 200.0 mg/kg/injection, schedule: Q01DX009 (ip), vehicle: saline with Tween-80.
The mark [10] stands for this setting: dose: 50.0 mg/kg/injection, schedule: Q01DX005 (ip), vehicle: saline.
Setting [11] is: dose: 100.0 mg/kg/injection, schedule: Q01DX005 (ip), vehicle: saline.
Setting [12] is: dose: 200.0 mg/kg/injection, schedule: Q01DX005 (ip), vehicle: saline.
Where [13] appears, read: dose: 25.0 mg/kg/injection, schedule: Q04DX002 (ip), vehicle: saline with Tween-80.
Setting [14] is: dose: 50.0 mg/kg/injection, schedule: Q04DX002 (ip), vehicle: saline with Tween-80.
[15] abbreviates: dose: 200.0 mg/kg/injection, schedule: Q04DX002 (ip), vehicle: saline with Tween-80.
Setting [16] is: dose: 400.0 mg/kg/injection, schedule: Q04DX002 (ip), vehicle: saline with Tween-80.
Setting [17] is: dose: 6.25 mg/kg/injection, schedule: Q01DX009 (ip), vehicle: saline with Tween-80.
[18] abbreviates: dose: 12.5 mg/kg/injection, schedule: Q01DX009 (ip), vehicle: saline with Tween-80.
[19] abbreviates: dose: 50.0 mg/kg/injection, schedule: Q01DX009 (ip), vehicle: saline.
The mark [20] stands for this setting: dose: 100.0 mg/kg/injection, schedule: Q01DX009 (ip), vehicle: saline.
Where [21] appears, read: dose: 200.0 mg/kg/injection, schedule: Q01DX009 (ip), vehicle: saline.
The mark [22] stands for this setting: dose: 50.0 mg/kg/injection, schedule: Q01DX005 (ip), vehicle: Klucel (hydroxypropylcellulose) (HPC).

Where “and” joins values, the source holds several entries; their conditions need not be identical. Identical values can stand only once. Toxic doses and inconclusive results are not listed.

On to `S=P1(Sc2ccccc2)Oc2ccccc2O1`, for which the T/C was 99 % of control (dose: 12.5 mg/kg/injection, schedule: Q01DX001 (ip), vehicle: saline with Tween-80); 100 % of control (dose: 25.0 mg/kg/injection, schedule: Q01DX001 (ip), vehicle: saline with Tween-80); 106 % of control (dose: 50.0 mg/kg/injection, schedule: Q01DX001 (ip), vehicle: saline with Tween-80); 90 % of control (dose: 100.0 mg/kg/injection, schedule: Q01DX001 (ip), vehicle: saline with Tween-80).

Consider `CCOC(=O)c1cnc2cc3c(cc2c1Nc1ccc2c(c1)OCO2)OCO3`, for which the T/C was 108 % of control (dose: 60.0 mg/kg/injection, schedule: Q01DX005 (ip), vehicle: Klucel + Tween-80) and 109 % of control (dose: 120.0 mg/kg/injection, schedule: Q01DX005 (ip), vehicle: Klucel + Tween-80).

`CC1=N/C(=C\c2ccccc2)C(=O)N1c1ccccc1`: the T/C was 98 % of control under setting [1]; 104 % of control under setting [2]; 105 % of control (dose: 400.0 mg/kg/injection, schedule: Q01DX005 (ip), vehicle: Klucel (hydroxypropylcellulose) (HPC)).

On to `CC1(C)CSC(=S)SC1`, for which the T/C is, setting by setting: (dose: 25.0 mg/kg/injection, schedule: Q04DX002 (ip), vehicle: saline) 100 % of control; (dose: 50.0 mg/kg/injection, schedule: Q04DX002 (ip), vehicle: saline) 97 % of control; under setting [3], 110 % of control; (dose: 100.0 mg/kg/injection, schedule: Q04DX002 (ip), vehicle: saline) 103 % of control.

Take `O=C(CC1(O)C(=O)Nc2ccccc21)c1ccc([N+](=O)[O-])cc1` (configuration not stated): the T/C was 102 % of control under setting [4], 95 % of control under setting [5] and 100 % of control under setting [6].

Take `C[Si]1(C)N[Si](C)(C)N[Si](C)(C)N1`: the T/C by setting is: under setting [7], 103 % of control; under setting [8], 95 % of control; under setting [9], 108 % of control.

For the compound `CCc1nc(N)nc(N)c1-c1ccc(N(C)C2CCCCC2)c([N+](=O)[O-])c1`, the T/C is 105 % of control and 106 % of control under setting [4]; 115 % of control under setting [5]; 103 % of control under setting [6]; 168 % of control (dose: 480.0 mg/kg/injection, schedule: Q01DX005 (ip), vehicle: saline with Tween-80).

`O=C(O)CC(C(=O)O)S(=O)CP(=O)(O)O` (configuration not stated): the T/C reads like this: under setting [10], 95 % of control; under setting [11], 103 % of control; under setting [12], 110 % of control.

Regarding `CCn1c2ccccc2c2ccc(N=Cc3cccc4ccccc34)cc21`, the T/C by setting is: (dose: 100.0 mg/kg/injection, schedule: Q04DX003 (ip), vehicle: saline + alcohol) 105 % of control; (dose: 200.0 mg/kg/injection, schedule: Q04DX003 (ip), vehicle: saline + alcohol) 97 % of control; (dose: 400.0 mg/kg/injection, schedule: Q04DX003 (ip), vehicle: saline + alcohol) 105 % of control.

For `Cc1cccc(N=C(C2=C(O)c3ccccc3C2=O)c2ccccc2)c1`, the T/C under setting [13] is 100 % of control; the T/C under setting [14] is 97 % of control; the T/C under setting [3] is 98 % of control; the T/C under setting [15] is 92 % of control; the T/C under setting [16] was 97 % of control.

`COCCCNC(=S)N/N=C/c1cc(Cl)cc(Cl)c1O`: the T/C is, setting by setting: under setting [17], 92 % of control; under setting [18], 87 % of control; under setting [9], 93 % of control.

With `COc1ccc2ccc(=O)oc2c1C1=C(C)C(=O)OC1`, the T/C by setting is: (dose: 2.0 mg/kg/injection, schedule: Q01DX009 (ip), vehicle: Klucel (hydroxypropylcellulose) (HPC)) 108 % of control; (dose: 4.0 mg/kg/injection, schedule: Q01DX009 (ip), vehicle: Klucel (hydroxypropylcellulose) (HPC)) 100 % of control; (dose: 8.0 mg/kg/injection, schedule: Q01DX009 (ip), vehicle: Klucel (hydroxypropylcellulose) (HPC)) 98 % of control; (dose: 16.0 mg/kg/injection, schedule: Q01DX009 (ip), vehicle: Klucel (hydroxypropylcellulose) (HPC)) 108 % of control.

Take `O=CNc1ccn[nH]1`: the T/C under setting [19] was 106 % of control, the T/C under setting [20] is 101 % of control and the T/C under setting [21] is 100 % of control.

As for `CCOC(=O)/C(O)=C/C1=CC(=O)CC(C)(C)C1`, the T/C under setting [3] was 110 % of control, the T/C under setting [15] was 114 % of control and the T/C under setting [16] is 103 % of control.

As to `COc1ccc(Cl)cc1NC(=O)Oc1ccncc1`, the T/C is, setting by setting: (dose: 0.78 mg/kg/injection, schedule: Q01DX009 (ip), vehicle: saline with Tween-80) 94 % of control; (dose: 1.56 mg/kg/injection, schedule: Q01DX009 (ip), vehicle: saline with Tween-80) 88 % of control; (dose: 3.12 mg/kg/injection, schedule: Q01DX009 (ip), vehicle: saline with Tween-80) 87 % of control and 88 % of control; under setting [17], 86 % of control; under setting [18], 88 % of control; under setting [7], 87 % of control. Moreover, the T/C is 101 % of control under setting [8] and 94 % of control under setting [9].

Consider `CN1CC2(C)OC3(CC2(C)N1C)N(C)N(C)CC3(C)O` (configuration not stated), for which the T/C is, setting by setting: under setting [10], 101 % of control; under setting [11], 101 % of control; under setting [12], 101 % of control.

Consider `OCNC(=S)c1c(Cl)cccc1Cl`, for which the T/C by setting is: (dose: 25.0 mg/kg/injection, schedule: Q01DX009 (ip), vehicle: saline with Tween-80) 111 % of control; under setting [7], 111 % of control; under setting [8], 109 % of control; under setting [9], 100 % of control.

As to `CC(C)NCC1CCc2cc(CO)c([N+](=O)[O-])cc2N1` (configuration not stated), the T/C under setting [22] is 105 % of control, the T/C under setting [1] is 107 % of control and the T/C under setting [2] was 106 % of control.

Consider `COc1ccc(Oc2nc(=O)n3ccsc3n2)cc1`, for which the T/C was 108 % of control (dose: 100.0 mg/kg/injection, schedule: Q04DX003 (ip), vehicle: saline with Tween-80); 86 % of control (dose: 200.0 mg/kg/injection, schedule: Q04DX003 (ip), vehicle: saline with Tween-80); 94 % of control (dose: 400.0 mg/kg/injection, schedule: Q04DX003 (ip), vehicle: saline with Tween-80).

On to `NC(Cc1ccccc1Cl)c1nn[nH]n1` (configuration not stated), for which the T/C is, setting by setting: under setting [13], 99 % of control and 93 % of control; under setting [14], 107 % of control and 95 % of control and 96 % of control; under setting [3], 100 % of control; under setting [15], 98 % of control and 100 % of control.

As for `C=CCOc1ccc(-c2ccccc2)cc1Br`, the T/C under setting [22] is 108 % of control, the T/C under setting [1] is 102 % of control and the T/C under setting [2] was 100 % of control.

Turning to `O=C(CO)N(CCO)CCO`, the T/C under setting [19] is 98 % of control, the T/C under setting [20] was 95 % of control and the T/C under setting [21] is 96 % of control.

Turning to `NC(CS)=NCC1C2CC3CC(C2)CC1C3` (configuration not stated), the T/C was 100 % of control (dose: 0.78 mg/kg/injection, schedule: Q01DX009 (ip), vehicle: Klucel (hydroxypropylcellulose) (HPC)); 100 % of control (dose: 1.56 mg/kg/injection, schedule: Q01DX009 (ip), vehicle: Klucel (hydroxypropylcellulose) (HPC)); 100 % of control and 91 % of control (dose: 3.12 mg/kg/injection, schedule: Q01DX009 (ip), vehicle: Klucel (hydroxypropylcellulose) (HPC)); 104 % of control (dose: 6.25 mg/kg/injection, schedule: Q01DX009 (ip), vehicle: Klucel (hydroxypropylcellulose) (HPC)).

Take `O=C(OC(C(=O)O)C(OC(=O)c1ccccc1)C(=O)O)c1ccccc1` (configuration not stated): the T/C reads like this: (dose: 50.0 mg/kg/injection, schedule: Q01DX005 (ip), vehicle: saline with Tween-80) 106 % of control; (dose: 100.0 mg/kg/injection, schedule: Q01DX005 (ip), vehicle: saline with Tween-80) 99 % of control; (dose: 200.0 mg/kg/injection, schedule: Q01DX005 (ip), vehicle: saline with Tween-80) 98 % of control.

With `O=C([O-])c1cc(Br)cc(Br)c1[OH2+].O=C([O-])c1cc(Br)cc(Br)c1[OH2+].[Mn+2]`, the T/C runs as follows: under setting [4], 109 % of control; under setting [5], 115 % of control.
